From ChEMBL document CHEMBL5376011, “Discovery of Anti-Hypercholesterolemia Agents Targeting LXRα from Marine Microorganism-Derived Natural Products” (J Nat Prod, 2024)
The source made the active and inactive calls.

Legend:
Mus musculus [1] = assay: Antihypercholesterolemic activity against high cholesterol diet fed C57BL/6J mouse assessed as reduction in degree of hepatic steatosis at 300 microg/kg, ip administered every 2 days for 15 days by Oil red staining based analysis; type: functional, organism-based; details: dose 300.0 µg/kg, time 15.0 day
HepG2 [2] = assay: Effect on LXRbeta mRNA expression in human HepG2 cells at 25 uM incubated for 24 hrs by RT-qPCR analysis; type: functional, cell-based
Mus musculus [3] = assay: Antihypercholesterolemic activity against high cholesterol diet fed LXRalpha knockout C57BL/6J mouse assessed as improvement in hepatic steatosis at 300 microg/kg, ip administered every 2 days for 15 days by H&E staining based analysis; type: functional, organism-based; details: dose 300.0 µg/kg, time 15.0 day
Mus musculus [4] = assay: Antihypercholesterolemic activity against high cholesterol diet fed C57BL/6J mouse assessed as reduction in SCD1 protein level at 300 microg/kg, ip administered every 2 days for 15 days by Western blot analysis; type: functional, organism-based; details: dose 300.0 µg/kg, time 15.0 day
Mus musculus [5] = assay: Antihypercholesterolemic activity against high cholesterol diet induced C57BL/6J mouse assessed as reduction in plasma low-density lipoprotein cholesterol level at 300 microg/kg, ip administered every 2 days for 15 days; type: functional, organism-based; details: dose 300.0 µg/kg, time 15.0 day
Mus musculus [6] = assay: Antihypercholesterolemic activity against high cholesterol diet induced C57BL/6J mouse assessed as reduction in serum aspartate aminotransferase level at 300 microg/kg, ip administered every 2 days for 15 days; type: functional, organism-based; details: dose 300.0 µg/kg, time 15.0 day
Mus musculus [7] = assay: Antihypercholesterolemic activity against high cholesterol diet fed C57BL/6J mouse assessed as improvement in hepatocyte liposis at 300 microg/kg, ip administered every 2 days for 15 days by H&E staining based analysis; type: functional, organism-based; details: dose 300.0 µg/kg, time 15.0 day
Mus musculus [8] = assay: Antihypercholesterolemic activity against high cholesterol diet fed LXRalpha knockout C57BL/6J mouse assessed as improvement in hepatocellular degeneration at 300 microg/kg, ip administered every 2 days for 15 days by Oil red staining based analysis; type: functional, organism-based; details: dose 300.0 µg/kg, time 15.0 day
Mus musculus [9] = assay: Antihypercholesterolemic activity against high cholesterol diet induced C57BL/6J mouse assessed as reduction in serum alanine aminotransferase level at 300 microg/kg, ip administered every 2 days for 15 days; type: functional, organism-based; details: dose 300.0 µg/kg, time 15.0 day
Mus musculus [10] = assay: Antihypercholesterolemic activity against high cholesterol diet fed LXRalpha knockout C57BL/6J mouse assessed as reduction in serum low density lipoprotein cholesterol level at 300 microg/kg, ip administered every 2 days for 15 days; type: functional, organism-based; details: dose 300.0 µg/kg, time 15.0 day
HepG2 [11] = assay: (§1) Improvement of lipid metabolism in palmitic acid and oleic acid induced human HepG2 cell model of hepatic steatosis assessed as reduction in triglyceride level at 25 uM preincubated with palmitic acid and oleic acid for 48 hrs followed by compound addition and measured after 24 hrs; type: functional, cell-based
Mus musculus [12] = assay: Antihypercholesterolemic activity against high cholesterol diet fed C57BL/6J mouse assessed as reduction of fine vacuoles in the cytoplasm at 300 microg/kg, ip administered every 2 days for 15 days by H&E staining based analysis; type: functional, organism-based; details: dose 300.0 µg/kg, time 15.0 day
Mus musculus [13] = assay: Antihypercholesterolemic activity against high cholesterol diet fed LXRalpha knockout C57BL/6J mouse assessed as reduction in serum alanine aminotransferase level at 300 microg/kg, ip administered every 2 days for 15 days; type: functional, organism-based; details: dose 300.0 µg/kg, time 15.0 day
HepG2 [14] = assay: as §1, with “reduction in lipid droplets at 25” for “reduction in triglyceride level at 25”, “24 hrs by Oil Red O staining based analysis” for “24 hrs”; type: functional
Mus musculus [15] = assay: Antihypercholesterolemic activity against high cholesterol diet fed LXRalpha knockout C57BL/6J mouse assessed as improvement in hepatic steatosis at 300 microg/kg, ip administered every 2 days for 15 days by Oil red staining based analysis; type: functional, organism-based; details: dose 300.0 µg/kg, time 15.0 day
Mus musculus [16] = assay: Antihypercholesterolemic activity against high cholesterol diet fed C57BL/6J mouse assessed as reduction in degree of hepatic steatosis at 300 microg/kg, ip administered every 2 days for 15 days by H&E staining based analysis; type: functional, organism-based; details: dose 300.0 µg/kg, time 15.0 day
Mus musculus [17] = assay: Antihypercholesterolemic activity against high cholesterol diet fed LXRalpha knockout C57BL/6J mouse assessed as improvement in liver lipid droplet accumulation at 300 microg/kg, ip administered every 2 days for 15 days by H&E staining based analysis; type: functional, organism-based; details: dose 300.0 µg/kg, time 15.0 day
Mus musculus [18] = assay: Antihypercholesterolemic activity against high cholesterol diet fed C57BL/6J mouse assessed as reduction in FASN protein level at 300 microg/kg, ip administered every 2 days for 15 days by Western blot analysis; type: functional, organism-based; details: dose 300.0 µg/kg, time 15.0 day
Mus musculus [19] = assay: Antihypercholesterolemic activity against high cholesterol diet fed LXRalpha knockout C57BL/6J mouse assessed as reduction in serum aspartate aminotransferase level at 300 microg/kg, ip administered every 2 days for 15 days; type: functional, organism-based; details: dose 300.0 µg/kg, time 15.0 day
[20] = molecular target: T1, Oxysterols receptor LXR-alpha (Homo sapiens) (UniProt Q13133); assay: Agonist activity at LXRalpha in human HepG2 cells assessed as upregulation of CYP7A1 protein expression level at 25 uM incubated for 24 hrs by Western blot analysis; type: cell-based; details: filed as agonist
T1 sequence (whole entry): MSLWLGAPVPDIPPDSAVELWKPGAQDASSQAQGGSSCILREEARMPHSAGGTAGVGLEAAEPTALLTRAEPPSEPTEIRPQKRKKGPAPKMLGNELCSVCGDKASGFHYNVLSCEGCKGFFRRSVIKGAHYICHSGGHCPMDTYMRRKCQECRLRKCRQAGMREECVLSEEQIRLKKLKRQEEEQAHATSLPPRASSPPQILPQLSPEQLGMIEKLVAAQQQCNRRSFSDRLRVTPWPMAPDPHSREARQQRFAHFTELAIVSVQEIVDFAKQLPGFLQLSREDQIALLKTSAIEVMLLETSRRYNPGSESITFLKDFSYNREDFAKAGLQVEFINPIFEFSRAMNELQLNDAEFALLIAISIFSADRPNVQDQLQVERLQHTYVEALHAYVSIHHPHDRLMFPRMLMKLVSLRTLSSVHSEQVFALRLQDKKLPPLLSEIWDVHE

Mus musculus [21] = assay: Antihypercholesterolemic activity against high cholesterol diet induced C57BL/6J mouse assessed as reduction in hepatocyte damage at 300 microg/kg, ip administered every 2 days for 15 days; type: functional, organism-based; details: dose 300.0 µg/kg, time 15.0 day

Measured: Activity

COc1ccc2c3c([nH]c2c1)[C@H](C=C(C)C)N1C(=O)[C@@H]2CCCN2C(=O)[C@]1(O)[C@H]3O
inactive: HepG2 [2] | Mus musculus [10] | Mus musculus [13] | Mus musculus [19]
active: all other assays above
